Source: patent US20230184743A1, “SCREENING METHODS TO IDENTIFY SMALL MOLECULE COMPOUNDS THAT PROMOTE OR INHIBIT THE GROWTH OF CIRCULATING TUMOR CELLS, AND USES THEREOF” (University of Southern California, priority 2020, published 2023)
Entries after “also recorded” stand apart in the source; their conditions may differ.

Tests used:
[1] = test system: single CTCs from a patient with breast cancer; assay: Culture of freshly isolated single CTCs from patients with breast cancer in NAC containing media; format: cell-based, human; conditions: clones dying after 2 weeks in regular media
Description: Patient samples. Ten milliliters of blood was collected from each of a total of 12 patients with breast cancer (stage IV). All experiments were performed following the ethical principles. Informed consents were signed by all patients and/or their legal guardian/s.
Isolation of single CTCs. Single CTCs were detected and retrieved using the negative selection protocol of PIC&RUN assay. Briefly, 7.5 mL of blood was added to each AccuCyte Separation Tube (RareCyte) and tubes were centrifuged twice in a special device to collect buffy coats in 1 mL of CTC media. Buffy coats were stained with a cocktail of immune cell markers (IM) antibodies (CD45, CD14, and CD16) and Cell-Tracker green for 30 min at 37° C. Stained buffy coats were seeded on polyhema coated cyteslides and scanned semi-automatically using RareCyte fluorescence. When a CTC was detected, the Rarecyte ceramic tip needle was operated semi-automatically to pick up the cell of interest in a draw volume of 50 nL to 0.5 μL, and deposit it in a PCR tube contains 50 μL of media. PCR tubes were pulse spun, their contents were moved to a well of a 96-well GravityTRAP ultralow plate (InSphero) and plates were incubated at 37° C., 5% CO2 and 4% 02 for 3 weeks. Media was replaced every 3 to 4 days and cells were checked every week.
NAC rescued the proliferation of freshly isolated CTCs from a patient with breast cancer. […]

BRx68-GFP+ cells = assay: RNA-seq analysis of pools of growing single cell clones; format: cell-based, human; conditions: day 6; NAC 0.3 mM, P4D8 1 μM
Description: RNA-seq analysis. BRx68-GFP+ cells were sorted, with 1 cell per well, using the MoFlo cell sorter (Beckman Coulter). Single cells were cultured in the presence of CTC media containing either 1 μM of P1C2, P4D8, or P1G7, or 0.3 mM of NAC or a combination of 1 μM of P1C2 and 0.3 mM of NAC. Cells cultured in media containing DMSO served as a control. All cells were cultured for either 6 days or 13 days at 37° C., 5% CO2 and 4% O2, and media was changed every 3 days. For both day 6 and day 13 groups, only clones with more than 3 cells at day 6 were harvested and pooled to a maximum of 50 cells. […] Libraries were sequenced on an Illumina NextSeq500 to obtain 75 bp-long single-end reads.
RNA-sequencing reads were trimmed for Nextera and Illumina adapter sequences using Trim Galore under default parameters. Trimmed reads were then mapped to the human genome build GRCh37 from Ensembl (ftp:/][/ftp.ensembl.org/pub/grch37/current/fasta/homo_sapiens/dna/Homo_sapiens.GRCh37.dna_sm.primary_as sembly.fa.gz) using STAR under optimized parameters for single-end sequenced data. Aligned reads were then counted via feature-Counts and piped into DESeq2 for normalization to sequencing depth and downstream analysis. […]

SMILES: CC(=O)N[C@@H](CS)C(=O)O [NAC, N-acetyl-L-cysteine]
- proliferation of freshly isolated patient CTC clone after switch to NAC containing media [1]: rescued a CTC clone; also recorded: recovered and resumed proliferation
- lipid metabolism pathway enrichment (IPA of differentially expressed genes) compared with control (BRx68-GFP+ cells): enriched
